These results are taken from US9708314B2, “Heterocyclic amide compound” (NISSAN CHEMICAL INDUSTRIES, LTD., priority 2013, dated 2017).

Common to all, as to assay type: in vivo
For series [1], the system named is directly sowed Oryza sativa. Nature of the series: Test Example 3: effect on crop by application to foliage (Wagner pot, water depth 0.1-0.5 cm). The following applies: Nineteenth Table; application to foliage; application herbicide amount 320 g/ha. The text has this: (§1) 5 Herbicidal ratio of 90% or more (almost completely withered) 4 Herbicidal ratio of 70% or more and less than 90% 3 Herbicidal ratio of 40% or more and less than 70% 2 Herbicidal ratio of 20% or more and less than 40% 1 Herbicidal ratio of 5% or more and less than 20% 0 Herbicidal ratio of 5% or less (almost no effect) [Test Example 3] Herbicidal Effect Test by Application to Foliage After alluvial soil was placed into 1/10000 are of Wagner pot, water was poured and mixed to form a condition having a water depth of 0.1 cm to 0.5 cm. Seeds of Echinochloa crus-galli var. crus-galli, Leptochloa chinensis, Cyperus difformis, and Oryza sativa were sowed and the pot was placed in the greenhouse of 25° C. to 30° C. to grow the plants. After the plants were grown for 14 days, the emulsion agent containing the compound of the present invention prepared in accordance with Formulation Example 2 was diluted with water so as to be a predetermined herbicide amount and the diluted compound was uniformly applied to a stem and leaf part with a small-size spray. Three weeks after the herbicide application, effects on each plant were investigated in accordance with the criteria of Test Example 1. A: Echinochloa oryzicola Vasing., B: Scirpus juncoides, C: Monochoria vaginalis, D: Leptochloa chinensis, E: Cyperus difformis, F: Digitaria ciliaris, G: Setaria viridis, H: Echinochloa crus-galli var. crus-galli, I: Avena fatua, J: Alopecurus myosuroides, K: Lolium multiflorum Lam., L: Apera spica-venti., M: Abutilon theophrasti, N: Amaranthus retroflexus, O: Chenopodium album, P: Stellaria media, Q: Galium spurium, R: Veronica persica, a: transplanted Oryza sativa, b: directly sowed Oryza sativa, c: Zea mays, d: Glycine max, e: Triticum aestivum, f: Beta vulgaris ssp. vulgaris, and g: Brassica campestris L. The application herbicide amount (g/ha) means an amount that a concentration is adjusted so that, when an application amount is converted into per hectare (1 ha), the herbicide is applied by the number of grams (g) of the described value.

The test system of series [2] is Digitaria ciliaris. Nature of the series: Test Example 4: herbicidal effect by application to foliage (diluvial soil, plastic box). The following applies: Application herbicide amount 320 g/ha. An excerpt:
(§2) 5 Herbicidal ratio of 90% or more (almost completely withered) 4 Herbicidal ratio of 70% or more and less than 90% 3 Herbicidal ratio of 40% or more and less than 70% 2 Herbicidal ratio of 20% or more and less than 40% 1 Herbicidal ratio of 5% or more and less than 20% 0 Herbicidal ratio of 5% or less (almost no effect) [Test Example 4] Herbicidal Effect Test by Application to Foliage Sterilized diluvial soil was placed in a plastic box having a length of 21 cm, a width of 13 cm, and a depth of 7 cm. Each of the seeds of Digitaria ciliaris, Setaria viridis, Echinochloa crus-galli var. crus-galli, Avena fatua, Alopecurus myosuroides, Lolium multiflorum Lam., Apera spica-venti., Abutilon theophrasti, Amaranthus retroflexus, Chenopodium album, Stellaria media, Galium spurium, Veronica persica, Zea mays, Glycine max, Oryza sativa, Triticum aestivum, Beta vulgaris ssp. vulgaris, and Brassica campestris L. was sowed in a spot-like manner and was covered with the soil of about 1.5 cm thick. Thereafter, the plants were grown in the greenhouse of 25° C. to 30° C. After the plants were grown for 14 days, the emulsion agent containing the compound of the present invention prepared in accordance with Formulation Example 2 was diluted with water so as to be a predetermined herbicide amount and the diluted compound was uniformly applied to a stem and leaf part with a small-size spray. Three weeks after the herbicide application, effects on each plant were investigated in accordance with the criteria of Test Example 1. A: Echinochloa oryzicola Vasing., B: Scirpus juncoides, C: Monochoria vaginalis, D: Leptochloa chinensis, E: Cyperus difformis, F: Digitaria ciliaris, G: Setaria viridis, H: Echinochloa crus-galli var. crus-galli, I: Avena fatua, J: Alopecurus myosuroides, K: Lolium multiflorum Lam., L: Apera spica-venti., M: Abutilon theophrasti, N: Amaranthus retroflexus, O: Chenopodium album, P: Stellaria media, Q: Galium spurium, R: Veronica persica, a: transplanted Oryza sativa, b: directly sowed Oryza sativa, c: Zea mays, d: Glycine max, e: Triticum aestivum, f: Beta vulgaris ssp. vulgaris, and g: Brassica campestris L. The application herbicide amount (g/ha) means an amount that a concentration is adjusted so that, when an application amount is converted into per hectare (1 ha), the herbicide is applied by the number of grams (g) of the described value.

Series [3] concerns Apera spica-venti. The description is as above. The following applies: Application herbicide amount 320 g/ha.
Source text: as §2

In series [4] the test system is Avena fatua. Described as above. The following applies: Application herbicide amount 320 g/ha.
Source text: as §2

Series [5] deals with Abutilon theophrasti. The description is as above. The note with it: Application herbicide amount 320 g/ha.
Source text: as §2

Series [6] concerns Lolium multiflorum Lam. The description is as above. The following applies: Application herbicide amount 320 g/ha.
Source text: as §2

The test system of series [7] is Alopecurus myosuroides. The series is described as above. The note with it: Application herbicide amount 320 g/ha.
Source text: as §2

Series [8] relates to Setaria viridis. Described as above. The note with it: Application herbicide amount 320 g/ha.
Source text: as §2

Series [9] deals with Chenopodium album. The series is described as above. The note with it: Application herbicide amount 320 g/ha.
Source text: as §2

The subject of series [10] is Echinochloa crus-galli var. crus-galli. The series is described as above. The note with it: Application herbicide amount 320 g/ha.
Source text: as §2

Series [11] relates to Veronica persica. Described as above. The following applies: Application herbicide amount 320 g/ha.
Source text: as §2

The test system of series [12] is Zea mays. The series can be described thus: Test Example 4: effect on crop by application to foliage (diluvial soil, plastic box). The following applies: Application herbicide amount 320 g/ha; effect on crop.
Source text: as §2

The subject of series [13] is Triticum aestivum. The description is as above. The following applies: Application herbicide amount 320 g/ha; effect on crop.
Source text: as §2

Series [14] relates to Beta vulgaris ssp. vulgaris. The series is described as above. The note with it: Application herbicide amount 320 g/ha; effect on crop.
Source text: as §2

Series [15] relates to directly sowed Oryza sativa. Described as above. The note with it: Application herbicide amount 320 g/ha; effect on crop.
Source text: as §2

Series [16] has as its system Brassica campestris L. The series is described as above. The note with it: Application herbicide amount 320 g/ha; effect on crop.
Source text: as §2

In series [17] the test system is Glycine max. The series is described as above. The note with it: Application herbicide amount 320 g/ha; effect on crop.
Source text: as §2

Series [18] deals with Leptochloa chinensis. Nature of the series: Test Example 3: herbicidal effect by application to foliage (Wagner pot, water depth 0.1-0.5 cm). The note with it: Nineteenth Table; application to foliage; application herbicide amount 320 g/ha.
Source text: as §1

In series [19] the test system is Cyperus difformis. The series is described as above. The following applies: Nineteenth Table; application to foliage; application herbicide amount 320 g/ha.
Source text: as §1

For series [20], the system named is Echinochloa crus-galli var. crus-galli. The description is as above. The note with it: Nineteenth Table; application to foliage; application herbicide amount 320 g/ha.
Source text: as §1

Series [21] concerns Galium spurium. The series can be described thus: Test Example 4: herbicidal effect by application to foliage (diluvial soil, plastic box). The note with it: Application herbicide amount 320 g/ha.
Source text: as §2

For `Cc1nnc(NC(=O)c2ccc(-c3ccccc3)n3c(C(C)C)nnc23)o1` [1-081], the “b (effect on crop grade)” value in [1] is recorded as 0 (Herbicidal ratio of 5% or less (almost no effect)). In addition, the F in series [2] was 0 (Herbicidal ratio of 5% or less (almost no effect)). Besides, in [3], the L was 0 (Herbicidal ratio of 5% or less (almost no effect)). In addition, in series [4], the I is reported as 0 (Herbicidal ratio of 5% or less (almost no effect)). The M in series [5] was 0 (Herbicidal ratio of 5% or less (almost no effect)). For the same compound, the K in series [6] is given as 0 (Herbicidal ratio of 5% or less (almost no effect)). Also, the J in [7] is 0 (Herbicidal ratio of 5% or less (almost no effect)). The G in series [8] is on record as 0 (Herbicidal ratio of 5% or less (almost no effect)). For the same compound, in series [9], the O was 4 (Herbicidal ratio of 70% or more and less than 90%). Besides, the H in [10] is 0 (Herbicidal ratio of 5% or less (almost no effect)). Further, the R in series [11] was 0 (Herbicidal ratio of 5% or less (almost no effect)). For the same compound, the b in series [12] is recorded as 0 (Herbicidal ratio of 5% or less (almost no effect)). In series [13], the e is 0 (Herbicidal ratio of 5% or less (almost no effect)). For the same compound, the f in series [14] was 1 (Herbicidal ratio of 5% or more and less than 20%). In addition, in series [15], the d is on record as 0 (Herbicidal ratio of 5% or less (almost no effect)). Further, in [16], the g is on record as 0 (Herbicidal ratio of 5% or less (almost no effect)). For the same compound, the c in series [17] is listed as 0 (Herbicidal ratio of 5% or less (almost no effect)). Also, the “D (herbicidal effect grade)” value in series [18] is listed as 0 (Herbicidal ratio of 5% or less (almost no effect)). Besides, the “E (herbicidal effect grade)” value in series [19] is 0 (Herbicidal ratio of 5% or less (almost no effect)). For the same compound, the “H (herbicidal effect grade)” value in series [20] is 2 (Herbicidal ratio of 20% or more and less than 40%).

As to `Cc1nnc(NC(=O)c2ccc(C(F)(F)F)n3c(C(C)C)nnc23)n1C` [5-001], the “b (effect on crop grade)” value in series [1] is listed as 0 (Herbicidal ratio of 5% or less (almost no effect)). Also, in series [18], the “D (herbicidal effect grade)” value is recorded as 0 (Herbicidal ratio of 5% or less (almost no effect)). Further, the “E (herbicidal effect grade)” value in series [19] was 0 (Herbicidal ratio of 5% or less (almost no effect)). Also, the “H (herbicidal effect grade)” value in series [20] is 1 (Herbicidal ratio of 5% or more and less than 20%).

For `CC(C)c1nnc2c(C(=O)Nc3nnc(-c4ccccn4)o3)ccc(C(F)(F)F)n12` [1-101], the “b (effect on crop grade)” value in series [1] was 0 (Herbicidal ratio of 5% or less (almost no effect)). In series [18], the “D (herbicidal effect grade)” value is 0 (Herbicidal ratio of 5% or less (almost no effect)). The “E (herbicidal effect grade)” value in series [19] is reported as 0 (Herbicidal ratio of 5% or less (almost no effect)). Also, the “H (herbicidal effect grade)” value in [20] is 1 (Herbicidal ratio of 5% or more and less than 20%).

As for `Cc1nnc(NC(=O)c2ccc(-c3cc(F)cc(F)c3)n3c(C(C)C)nnc23)o1` [1-088], the Q in series [21] is on record as 0 (Herbicidal ratio of 5% or less (almost no effect)). The F in [2] is listed as 0 (Herbicidal ratio of 5% or less (almost no effect)). For the same compound, in series [3], the L was 0 (Herbicidal ratio of 5% or less (almost no effect)). The I in [4] is 0 (Herbicidal ratio of 5% or less (almost no effect)). Moreover, the M in series [5] was 0 (Herbicidal ratio of 5% or less (almost no effect)). In addition, the K in series [6] was 0 (Herbicidal ratio of 5% or less (almost no effect)). Besides, in series [7], the J is recorded as 0 (Herbicidal ratio of 5% or less (almost no effect)). In addition, the G in series [8] is reported as 0 (Herbicidal ratio of 5% or less (almost no effect)). Moreover, the O in series [9] was 2 (Herbicidal ratio of 20% or more and less than 40%). Also, the H in series [10] is on record as 0 (Herbicidal ratio of 5% or less (almost no effect)). Moreover, in series [11], the R was 0 (Herbicidal ratio of 5% or less (almost no effect)). The b in series [12] is recorded as 0 (Herbicidal ratio of 5% or less (almost no effect)). Moreover, in series [13], the e is listed as 0 (Herbicidal ratio of 5% or less (almost no effect)). In addition, the f in series [14] is recorded as 0 (Herbicidal ratio of 5% or less (almost no effect)). For the same compound, in series [15], the d is on record as 0 (Herbicidal ratio of 5% or less (almost no effect)). In addition, in series [16], the g is 0 (Herbicidal ratio of 5% or less (almost no effect)). Further, the c in series [17] is listed as 0 (Herbicidal ratio of 5% or less (almost no effect)).
